How the values were obtained:
Assay type in all cases: cell-based
LNCaP cells [1] = assay: RT-qPCR expression of bimodal genes in LNCaP cells with and without R1881; conditions: R1881 1 nM, relative to untreated cells, period of 36 hrs
Protocol: (§1) LNCaP and PC3 cells routinely grown in the laboratory were transfected with SMARTpool siRNAs specifically targeting TGFBR2 and GSK3B, respectively, according to the manufacturer protocol (ThermoFisher). Unspecific scrambled siRNA was used as a negative control. Total RNA were prepared from transfected and control cells or from cells treated with R1881 (1 nM), a synthetic androgen agonist. Reverse transcription was performed using the SuperScript III kit (Invitrogen) on a Veriti 96-well Thermocycler (Applied Biosystems). Relative expression values of genes were shown as the average fold changes (2−ΔΔCt) from three individual experiments using UBB as an internal control and the untreated expression designated as 1.

LNCaP cells [2] = assay: Cell proliferation, migration, and invasion assays (IncuCyte ZOOM), LNCaP; conditions: R1881 1 nM (low-dose)
Protocol: (§2) Cells were seeded in triplicate wells of a 96-well plate, and every three hours four independent images were taken per well and quantified for confluence percentage using the IncuCyte ZOOM system. To eliminate variations of cell size and seeding densities, relative cell densities at all time points' values were normalized to the initial time point's average confluence.
(§3) Cell monolayers were seeded to optimized confluent levels in a 96-well ImageLock Plate (Essen BioSciences). The 96-well WoundMaker created equal scratches in every well simultaneously for cell migration and invasion analysis (Essen BioSciences). For invasion assays, BD Matrigel™ Basement Membrane Matrix (BD Biosciences) was used for coating the ImageLock plates, creating a thick layer above the scratched monolayer, 0.1 and 4.0 mg/ml respectively. The IncuCyte ZOOM system's scan mode set to scratch wound and wide mode and captured 1 image every 3 hours. Migration and invasion were analyzed using the relative wound density percent (RWD %) metric.

PC3 cells [3] = assay: Cell proliferation, migration, and invasion assays (IncuCyte ZOOM), PC3; conditions: R1881 1 nM, androgen-independent PC3 cells
Protocol: as §2, §3

PC3 cells [4] = assay: RT-qPCR expression of bimodal genes in PC3 cells with and without R1881; conditions: R1881 1 nM, androgen-independent PC3 cells
Protocol: as §1

**Q.** C[C@]1(O)CC[C@H]2[C@@H]3CCC4=CC(=O)CCC4=C3C=C[C@@]21C [R1881] was tested. Which “expression of CDKN1C” value (LNCaP cells [1]) did it give?
**A.** further repressed

**Q.** What about the “expression of CXCL6” value (LNCaP cells [1]) of the same compound?
**A.** further repressed

**Q.** What about the cell growth (LNCaP cells [2]) of the same compound?
**A.** did not cause noticeable changes

**Q.** What about the invasion (LNCaP cells [2]) of the same compound?
**A.** did not cause noticeable changes

**Q.** And the migration (LNCaP cells [2])?
**A.** did not cause noticeable changes

**Q.** And the cellular phenotypes (PC3 cells [3])?
**A.** did not alter

**Q.** What about the gene expression patterns (PC3 cells [4]) of the same compound?
**A.** did not alter

Source: patent US20170076040A1, “SINGLE-CELL ANALYSIS AS A SENSITIVE AND SPECIFIC METHOD FOR EARLY CANCER DETECTION” (THE BOARD OF REGENTS OF THE UNIVERSITY OF TEXAS SYSTEM, priority 2014, published 2017)
